The record followed here is article PMC4890880 (ACS infectious diseases, 2016).

Test [1] concerns the target QuantiLum Recombinant Luciferase (Photinus pyralis, UniProt P08659). The experiment in a line: Bioluminescence quantification of compound luciferase inhibition. The note with it: for Emax: read-out: LucInhib max inhibition.
The test system of test [2] is Plasmodium berghei (Pb-Luc) exoerythrocytic-stage parasites. The experiment in a line: microbe, parasite or virus in culture.
A further test deals with HepG2-A16-CD81EGFP cells. The experiment in a line: cells. The settings on record: Homo sapiens; for IC50: HepG2, read-out: Tox IC50; for inhibition at 50 µM: HepG2, read-out: Tox max inhibition (%) @ 50 uM.
The mark [3] stands for this setting: read-out: Inhibition% @ 50 uM rep1.
The mark [4] stands for this setting: read-out: Inhibition% @ 50 uM rep2.
Where [5] appears, read: read-out: PbLuc IC50, dose response, 1/3 dilutions, max conc. 10 or 50 uM, unit inferred.
The mark [6] stands for this setting: read-out: PbLuc max inhibition (%) @ 50 uM.
[7] abbreviates: HepG2, read-out: HepG2 Tox% @ 50 uM rep1.
Setting [8] is: HepG2, read-out: HepG2 Tox% @ 50 uM rep2.

As usually defined, the inhibition is the drop in the measured response relative to a control, in per cent.

SMILES strings stand for the structures. Read-outs that look alike come from different tables or passages of the source. Some results are limits rather than exact numbers.

Chain of QuantiLum Recombinant Luciferase (P08659 whole entry): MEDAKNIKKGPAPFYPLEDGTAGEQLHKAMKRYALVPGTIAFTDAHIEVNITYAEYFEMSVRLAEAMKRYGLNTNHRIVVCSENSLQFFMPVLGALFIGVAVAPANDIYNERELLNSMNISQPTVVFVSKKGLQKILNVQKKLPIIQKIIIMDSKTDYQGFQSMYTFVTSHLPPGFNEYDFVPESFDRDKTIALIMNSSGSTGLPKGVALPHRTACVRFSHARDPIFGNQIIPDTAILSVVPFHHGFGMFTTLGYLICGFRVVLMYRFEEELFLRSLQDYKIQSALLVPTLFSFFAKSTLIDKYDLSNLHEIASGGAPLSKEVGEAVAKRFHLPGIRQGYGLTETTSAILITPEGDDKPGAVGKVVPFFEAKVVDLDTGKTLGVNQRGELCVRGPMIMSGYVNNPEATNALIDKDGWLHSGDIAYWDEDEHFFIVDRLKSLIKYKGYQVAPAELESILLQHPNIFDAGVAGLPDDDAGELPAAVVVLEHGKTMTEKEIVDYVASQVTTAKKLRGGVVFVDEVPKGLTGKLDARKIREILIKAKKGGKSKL

For `CCOc1ccccc1CN1CCc2nc3cc(C(C)(C)C)nn3c(O)c2C1` [MMV396595], the IC50 was greater than 50 µM in test [1], 0.569 µM in test [2] (setting [5]) and greater than 50 µM with HepG2-A16-CD81EGFP cells. In test [1], the Emax was 50%. Also, the inhibition at 50 µM in test [2] (setting [3]) turned out to be 99%; in test [2] (setting [4]), 100%; in test [2] (setting [6]), 106%; in the test on HepG2-A16-CD81EGFP cells it was 8%. Moreover, in the test with HepG2-A16-CD81EGFP cells (setting [7]), the cytotoxicity at 50 µM was found to be 0.78%.
On to `Cc1sc(NC(=O)c2ccccc2)c(C(c2cccs2)N2CCN(c3ccccc3)CC2)c1C` (stereo not shown) [MMV396652], for which the IC50 is greater than 50 µM in test [1], 4.07 µM in test [2] (setting [5]) and greater than 50 µM with HepG2-A16-CD81EGFP cells. In test [1], the Emax was 33%. Further, the inhibition at 50 µM in test [2] (setting [3]) stood at 99%; in test [2] (setting [4]), 99%; in test [2] (setting [6]), 97%; with HepG2-A16-CD81EGFP cells, 28%. Also, in the test on HepG2-A16-CD81EGFP cells (setting [7]), the cytotoxicity at 50 µM was determined as 14%.
In the case of `COc1ccc(-c2cc3c(SCC(=O)Nc4cc(C(F)(F)F)ccc4Cl)nccn3n2)cc1` [MMV396679], the results for the IC50 (in test [1]; in test [2] (setting [5]); with HepG2-A16-CD81EGFP cells) were greater than 50 µM, 2.18 µM and greater than 50 µM, respectively. For the same compound, in test [1], the Emax is 10%. In addition, the inhibition at 50 µM was 102% in test [2] (setting [3]), 103% in test [2] (setting [4]), 105% in test [2] (setting [6]) and 14% with HepG2-A16-CD81EGFP cells. Also, the values for the cytotoxicity at 50 µM in the test on HepG2-A16-CD81EGFP cells (setting [7]) and in the test with HepG2-A16-CD81EGFP cells (setting [8]) were 7% and 18%, respectively.
For `Cc1ccc(-c2cc3c(SCC(=O)Nc4cc(C(F)(F)F)ccc4Cl)nccn3n2)cc1` [MMV396680], the IC50 in test [1] is greater than 50 µM; in test [2] (setting [5]), 8.63 µM; in the test on HepG2-A16-CD81EGFP cells, greater than 50 µM. Also, the Emax in test [1] came out at 21%. Further, the inhibition at 50 µM is 92% in test [2] (setting [3]), 85% in test [2] (setting [4]), 95% in test [2] (setting [6]) and 11% in the test with HepG2-A16-CD81EGFP cells. Further, the cytotoxicity at 50 µM was -4% in the test with HepG2-A16-CD81EGFP cells (setting [7]) and 2.13% in the test on HepG2-A16-CD81EGFP cells (setting [8]).
For the compound `N#Cc1nc(Cc2cccc3ccccc23)oc1N1CCN(C(c2ccccc2)c2ccccc2)CC1` [MMV396726], the IC50 is greater than 50 µM in test [1], 2.68 µM in test [2] (setting [5]) and greater than 50 µM in the test with HepG2-A16-CD81EGFP cells. In addition, the Emax in test [1] came out at 23%. Further, the inhibition at 50 µM in test [2] (setting [3]) is 97%; in test [2] (setting [4]) it was 92%; in test [2] (setting [6]), 100%; in the test with HepG2-A16-CD81EGFP cells, -1%. Also, in the test on HepG2-A16-CD81EGFP cells (setting [7]), the cytotoxicity at 50 µM is -11%.
With `CCOC(=O)c1cnc2c(CC)cccc2c1O` [MMV498479], the IC50 is greater than 50 µM in test [1], 1.67 µM in test [2] (setting [5]) and greater than 50 µM in the test with HepG2-A16-CD81EGFP cells. In test [1], the Emax is 19%. Also, the inhibition at 50 µM in test [2] (setting [3]) came out at 103%; in test [2] (setting [4]), 103%; in test [2] (setting [6]), 106%; in the test with HepG2-A16-CD81EGFP cells, 1%. Besides, the cytotoxicity at 50 µM with HepG2-A16-CD81EGFP cells (setting [7]) is -10%.
Regarding `CCOc1cc(Cl)c(C(C)NC(=O)c2ccccc2)cc1OCC` (stereo not shown) [MMV665800], the IC50 in test [1] is greater than 50 µM; in test [2] (read-out: PbLuc IC50, dose response, unit inferred) it was greater than 50 µM; in the test on HepG2-A16-CD81EGFP cells it was greater than 50 µM. In test [1], the Emax worked out at 41%. Besides, the inhibition at 50 µM is 97% in test [2] (setting [3]), 93% in test [2] (setting [4]), 89% in test [2] (setting [6]) and 22% with HepG2-A16-CD81EGFP cells. Also, the cytotoxicity at 50 µM was found to be 49% with HepG2-A16-CD81EGFP cells (setting [7]) and 21% with HepG2-A16-CD81EGFP cells (setting [8]).
With `CCOC(=O)c1cn(CC)c2cc(N3CCCCC3)c(F)cc2c1=O` [MMV665827], the IC50 in test [1] was greater than 20 µM; in test [2] (setting [5]) it was 0.0743 µM; in the test with HepG2-A16-CD81EGFP cells, greater than 10 µM. Besides, in test [1], the Emax worked out at 24%. Moreover, the inhibition at 50 µM is 102% in test [2] (setting [3]) and 105% in test [2] (setting [4]). The inhibition at 10 µM in test [2] (read-out: PbLuc max inhibition (%) @ 10 uM) amounted to 99%; in the test with HepG2-A16-CD81EGFP cells (HepG2, read-out: Tox max inhibition (%) @ 10 uM) it was 15%. The cytotoxicity at 50 µM is -12% in the test on HepG2-A16-CD81EGFP cells (setting [7]) and -7% in the test on HepG2-A16-CD81EGFP cells (setting [8]).
